The test system of one test is BA.2 pseudovirus. Conditions: read-out: Inhibitory activity, IC50 (nM) BA.2, Caco2 target cells.
In the next test the test system is BA.2.86 pseudovirus. Conditions: read-out: Inhibitory activity, IC50 (nM) BA.2.86, Caco2 target cells.
The next test deals with XBB.1.5 pseudovirus. Conditions: read-out: Inhibitory activity, IC50 (nM) XBB.1.5, Caco2 target cells.
In a further test the test system is BA.2.75 pseudovirus. The conditions noted are these: read-out: Inhibitory activity, IC50 (nM) BA.2.75, Caco2 target cells.
The next test relates to EG.5 pseudovirus. Conditions: read-out: Inhibitory activity, IC50 (nM) EG.5, Caco2 target cells.

`CC[C@H](C)[C@H](NC(=O)[C@H](C)NC(=O)[C@H](CCC(=O)O)NC(=O)[C@H](CCC(=O)O)NC(=O)[C@H](CC(C)C)NC(=O)[C@H](CCCCN)NC(=O)[C@H](CCCCN)NC(=O)[C@H](CCSC)NC(=O)[C@H](CCC(=O)O)NC(=O)[C@H](Cc1ccc(O)cc1)NC(=O)[C@H](CCC(=O)O)NC(=O)[C@H](CC(C)C)NC(=O)[C@H](CC(=O)O)NC(=O)[C@H](CC(C)C)NC(=O)[C@H](Cc1ccccc1)NC(=O)[C@@H](NC(=O)[C@@H](NC(=O)[C@H](CC(N)=O)NC(=O)[C@@H](NC(=O)[C@H](CCC(N)=O)NC(=O)[C@H](CC(=O)O)NC(=O)[C@H](CC(C)C)NC(=O)[C@H](CO)NC(C)=O)[C@@H](C)CC)C(C)C)[C@@H](C)O)C(=O)N[C@@H](CCCCN)C(=O)N[C@@H](CCCCN)C(=O)N[C@@H](CC(C)C)C(=O)N[C@@H](CCC(=O)O)C(=O)N[C@@H](CCC(=O)O)C(=O)N[C@@H](CO)C(=O)N[C@@H](Cc1ccc(O)cc1)C(=O)N[C@H](C(=O)N[C@@H](CC(=O)O)C(=O)N[C@@H](CC(C)C)C(=O)N[C@@H](CCCCN)C(=O)N[C@@H](CCC(=O)O)C(=O)N[C@@H](CC(C)C)C(N)=O)[C@@H](C)CC` [EK1]: the IC50 (usually the concentration that inhibits the measured activity by half) in the test with BA.2 pseudovirus came to 228 nM; with BA.2.86 pseudovirus it was 392 nM; in the test with XBB.1.5 pseudovirus, 291 nM; in the test with BA.2.75 pseudovirus, 438 nM; in the test with EG.5 pseudovirus it was 401 nM.

The record behind these values is EP4722231A1, “BIOSYNTHESIS METHOD FOR BROAD-SPECTRUM ANTIVIRAL POLYPEPTIDE” (Shanxi Jinbo Bio-Pharmaceutical Co., Ltd., priority 2023, dated 2025).
